From patent US11173151B2, “Substituted triazole derivatives and uses thereof” (BAYER AKTIENGESELLSCHAFT, priority 2017, dated 2021) come the findings set out here.

One assay has as its target T1, human V1a receptor (Homo sapiens, UniProt P37288).
T1 construct: expressed in transfected cells; host or cells: CHO K1 (ATCC), also stably transfected with a modified aequorin
Kind of assay: Cellular in vitro assay for determining vasopressin receptor activity, V1a receptor cell line (CHO, aequorin luminescence). Type of assay: cell-based. As to conditions: for IC50: CHO cell line transfected with human V1a receptor, [Arg]-vasopressin at EC50 concentration, read-out: IC50 hV1a; for ratio IC50 hV2/hV1a: selectivity ratio IC50 hV2 / IC50 hV1a. A digest of the protocol: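 IC50 from inhibition of [Arg]-vasopressin (EC50 concentration)-evoked aequorin luminescence in CHO K1 cells, with 10-min compound pretreatment.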

The target of the next assay is T2, human V2 receptor (Homo sapiens, UniProt P30518).
T2 construct: expressed in transfected cells; host or cells: CHO K1 (ATCC) expressing firefly luciferase under a CRE-responsive promoter
Kind of assay: Cellular in vitro assay for determining vasopressin receptor activity, V2 receptor cell line (CHO, CRE-luciferase). As to conditions: CHO cell line transfected with human V2 receptor; [Arg8]-vasopressin at EC50 concentration, 3 hours; read-out: IC50 hV2. Format: cell-based.

T1 sequence (P37288 whole entry): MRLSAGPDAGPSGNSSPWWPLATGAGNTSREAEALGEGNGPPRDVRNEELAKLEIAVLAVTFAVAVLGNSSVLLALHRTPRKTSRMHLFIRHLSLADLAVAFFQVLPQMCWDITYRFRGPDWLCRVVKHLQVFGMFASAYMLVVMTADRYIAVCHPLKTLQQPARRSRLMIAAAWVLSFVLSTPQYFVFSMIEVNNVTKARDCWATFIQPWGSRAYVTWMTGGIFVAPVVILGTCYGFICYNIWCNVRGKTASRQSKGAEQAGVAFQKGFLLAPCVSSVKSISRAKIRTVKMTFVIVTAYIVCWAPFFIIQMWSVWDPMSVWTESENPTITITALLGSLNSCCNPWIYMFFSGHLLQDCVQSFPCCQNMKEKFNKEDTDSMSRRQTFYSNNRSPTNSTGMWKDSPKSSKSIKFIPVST
T2 sequence (P30518 whole entry): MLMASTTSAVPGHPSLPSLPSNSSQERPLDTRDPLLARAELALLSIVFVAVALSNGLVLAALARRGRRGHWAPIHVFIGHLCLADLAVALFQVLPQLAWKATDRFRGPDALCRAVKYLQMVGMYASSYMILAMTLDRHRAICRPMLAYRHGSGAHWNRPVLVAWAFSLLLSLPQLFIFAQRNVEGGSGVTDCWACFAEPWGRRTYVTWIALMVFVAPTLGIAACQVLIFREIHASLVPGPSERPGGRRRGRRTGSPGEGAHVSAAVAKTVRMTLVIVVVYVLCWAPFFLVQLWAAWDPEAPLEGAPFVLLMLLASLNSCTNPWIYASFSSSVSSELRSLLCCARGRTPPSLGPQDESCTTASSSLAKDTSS

The term IC50 denotes the midpoint of a concentration-inhibition curve. Turning to `O=C(O)CCNc1ccncc1-n1cnc(Cn2nc(-c3ccc(Cl)cc3)n(C[C@H](O)C(F)(F)F)c2=O)n1` [Example 20, N-{3-[3-({3-(4-Chlorophenyl)-5-oxo-4-[(2S)-3,3,3-trifluoro-2-hydroxypropyl]-4,5-dihydro-1H-1,2,4-triazol-1-yl}methyl)-1H-1,2,4-triazol-1-yl]pyridin-4-yl}-beta-alanine], the concentration for half-maximal inhibition (IC50) at human V1a receptor stood at 4350 nM; at human V2 receptor, 5920 nM. At human V1a receptor, the “ratio IC50 hV2/hV1a” value was found to be 1.4.

In the case of `NC(=O)CCNc1ccncc1-n1cnc(Cn2nc(-c3ccc(Cl)cc3)n(C[C@H](O)C(F)(F)F)c2=O)n1` [Example 21, N^3-{3-[3-({3-(4-Chlorophenyl)-5-oxo-4-[(2S)-3,3,3-trifluoro-2-hydroxypropyl]-4,5-dihydro-1H-1,2,4-triazol-1-yl}methyl)-1H-1,2,4-triazol-1-yl]pyridin-4-yl}-beta-alaninamide], at human V1a receptor, the concentration for half-maximal inhibition (IC50) was 840 nM and the “ratio IC50 hV2/hV1a” value was 1.8. Besides, at human V2 receptor, the IC50 turned out to be 1480 nM.

`NC(=O)[C@H]1CCCN1c1ccncc1-n1cnc(Cn2nc(-c3ccc(Cl)cc3)n(C[C@H](O)C(F)(F)F)c2=O)n1` [Example 22, 1-{3-[3-({3-(4-Chlorophenyl)-5-oxo-4-[(2S)-3,3,3-trifluoro-2-hydroxypropyl]-4,5-dihydro-1H-1,2,4-triazol-1-yl}methyl)-1H-1,2,4-triazol-1-yl]pyridin-4-yl}-D-prolinamide]: on human V1a receptor, the concentration for half-maximal inhibition (IC50) came to 250 nM and the “ratio IC50 hV2/hV1a” value is 2.8. In addition, the concentration for half-maximal inhibition (IC50) on human V2 receptor came to 690 nM.

On to `NC(=O)[C@@H]1CCCN1c1ccncc1-n1cnc(Cn2nc(-c3ccc(Cl)cc3)n(C[C@H](O)C(F)(F)F)c2=O)n1` [Example 23, 1-{3-[3-({3-(4-Chlorophenyl)-5-oxo-4-[(2S)-3,3,3-trifluoro-2-hydroxypropyl]-4,5-dihydro-1H-1,2,4-triazol-1-yl}methyl)-1H-1,2,4-triazol-1-yl]pyridin-4-yl}-L-prolinamide], for which the 50% inhibitory concentration (IC50) came out at 710 nM on human V1a receptor and 4250 nM on human V2 receptor. The “ratio IC50 hV2/hV1a” value on human V1a receptor came to 6.0.

For `NC(=O)[C@H]1CC(F)(F)CN1c1ccncc1-n1cnc(Cn2nc(-c3ccc(Cl)cc3)n(C[C@H](O)C(F)(F)F)c2=O)n1` [Example 24, 1-{3-[3-({3-(4-Chlorophenyl)-5-oxo-4-[(2S)-3,3,3-trifluoro-2-hydroxypropyl]-4,5-dihydro-1H-1,2,4-triazol-1-yl}methyl)-1H-1,2,4-triazol-1-yl]pyridin-4-yl}-4,4-difluoro-D-prolinamide], on human V1a receptor, the 50% inhibitory concentration (IC50) is 330 nM and the “ratio IC50 hV2/hV1a” value amounted to 14.2. Moreover, on human V2 receptor, the IC50 was 4670 nM.

Consider `NC(=O)[C@@H]1CC(F)(F)CN1c1ccncc1-n1cnc(Cn2nc(-c3ccc(Cl)cc3)n(C[C@H](O)C(F)(F)F)c2=O)n1` [Example 25, 1-{3-[3-({3-(4-Chlorophenyl)-5-oxo-4-[(2S)-3,3,3-trifluoro-2-hydroxypropyl]-4,5-dihydro-1H-1,2,4-triazol-1-yl}methyl)-1H-1,2,4-triazol-1-yl]pyridin-4-yl}-4,4-difluoro-L-prolinamide], for which the half-inhibitory concentration (IC50) at human V1a receptor was found to be 1970 nM; on human V2 receptor, 4900 nM. For the same molecule, on human V1a receptor, the “ratio IC50 hV2/hV1a” value was 2.5.

With `O=C(Nc1ccncc1-n1cnc(Cn2nc(-c3ccc(Cl)cc3)n(C[C@H](O)C(F)(F)F)c2=O)n1)OCC(F)(F)F` [Example 26, 2,2,2-Trifluoroethyl {3-[3-({3-(4-chlorophenyl)-5-oxo-4-[(2S)-3,3,3-trifluoro-2-hydroxypropyl]-4,5-dihydro-1H-1,2,4-triazol-1-yl}methyl)-1H-1,2,4-triazol-1-yl]pyridin-4-yl}carbamate], the concentration for half-maximal inhibition (IC50) on human V1a receptor stood at 58 nM; on human V2 receptor, 323 nM. Also, the “ratio IC50 hV2/hV1a” value at human V1a receptor was found to be 5.6.

Consider `O=C(CC(F)(F)F)Nc1ccncc1-n1cnc(Cn2nc(-c3ccc(Cl)cc3)n(C[C@H](O)C(F)(F)F)c2=O)n1` [Example 27, N-{3-[3-({3-(4-Chlorophenyl)-5-oxo-4-[(2S)-3,3,3-trifluoro-2-hydroxypropyl]-4,5-dihydro-1H-1,2,4-triazol-1-yl}methyl)-1H-1,2,4-triazol-1-yl]pyridin-4-yl}-3,3,3-trifluoropropanamide], for which the half-maximal inhibitory concentration (IC50) amounted to 4.05 nM at human V1a receptor and 283 nM at human V2 receptor. Further, the “ratio IC50 hV2/hV1a” value at human V1a receptor is recorded as 69.8.

Consider `CC(=O)Nc1ccncc1-n1cnc(Cn2nc(-c3ccc(Cl)cc3)n(C[C@H](O)C(F)(F)F)c2=O)n1` [Example 28, N-{3-[3-({3-(4-Chlorophenyl)-5-oxo-4-[(2S)-3,3,3-trifluoro-2-hydroxypropyl]-4,5-dihydro-1H-1,2,4-triazol-1-yl}methyl)-1H-1,2,4-triazol-1-yl]pyridin-4-yl}acetamide], for which the IC50 came out at 11 nM on human V1a receptor and 395 nM at human V2 receptor. Also, the “ratio IC50 hV2/hV1a” value at human V1a receptor came to 35.9.

`O=C(CC1CC1)Nc1ccncc1-n1cnc(Cn2nc(-c3ccc(Cl)cc3)n(C[C@H](O)C(F)(F)F)c2=O)n1` [Example 30, N-{3-[3-({3-(4-Chlorophenyl)-5-oxo-4-[(2S)-3,3,3-trifluoro-2-hydroxypropyl]-4,5-dihydro-1H-1,2,4-triazol-1-yl}methyl)-1H-1,2,4-triazol-1-yl]pyridin-4-yl}-2-cyclopropylacetamide]: on human V1a receptor, the IC50 turned out to be 12.8 nM and the “ratio IC50 hV2/hV1a” value is on record as 61.0. The IC50 at human V2 receptor turned out to be 783 nM.

Turning to `O=C(Nc1ccncc1-n1cnc(Cn2nc(-c3ccc(Cl)cc3)n(C[C@H](O)C(F)(F)F)c2=O)n1)C1CC(F)(F)C1` [Example 31, N-{3-[3-({3-(4-Chlorophenyl)-5-oxo-4-[(2S)-3,3,3-trifluoro-2-hydroxypropyl]-4,5-dihydro-1H-1,2,4-triazol-1-yl}methyl)-1H-1,2,4-triazol-1-yl]pyridin-4-yl}-3,3-difluorocyclobutanecarboxamide], at human V1a receptor, the half-maximal inhibitory concentration (IC50) worked out at 18.3 nM and the “ratio IC50 hV2/hV1a” value is 90.8. Further, at human V2 receptor, the half-maximal inhibitory concentration (IC50) worked out at 1670 nM.

As for `O=C(Nc1ccncc1-n1cnc(Cn2nc(-c3ccc(Cl)cc3)n(C[C@H](O)C(F)(F)F)c2=O)n1)C1(C(F)(F)F)CC1` [Example 32, N-{3-[3-({3-(4-Chlorophenyl)-5-oxo-4-[(2S)-3,3,3-trifluoro-2-hydroxypropyl]-4,5-dihydro-1H-1,2,4-triazol-1-yl}methyl)-1H-1,2,4-triazol-1-yl]pyridin-4-yl}-1-(trifluoromethyl)cyclopropanecarboxamide], the figures for the half-maximal inhibitory concentration (IC50) at human V1a receptor and on human V2 receptor were 5 nM and 753 nM, respectively. At human V1a receptor, the “ratio IC50 hV2/hV1a” value is reported as 150.7.

For the molecule `O=C(Nc1ccncc1-n1cnc(Cn2nc(-c3ccc(Cl)cc3)n(C[C@H](O)C(F)(F)F)c2=O)n1)[C@@H]1C[C@@H]1F` [Example 34, (1S,2S)—N-{t3-[3-({3-(4-Chlorophenyl)-5-oxo-4-[(2S)-3,3,3-trifluoro-2-hydroxypropyl]-4,5-dihydro-1H-1,2,4-triazol-1-yl}methyl)-1H-1,2,4-triazol-1-yl]pyridin-4-yl}-2-fluorocyclopropanecarboxamide], at human V1a receptor, the half-inhibitory concentration (IC50) was 13.5 nM and the “ratio IC50 hV2/hV1a” value stood at 92.1. The 50% inhibitory concentration (IC50) at human V2 receptor stood at 1240 nM.

As for `O=C(Nc1cccnc1-n1cnc(Cn2nc(-c3ccc(Cl)cc3)n(C[C@H](O)C(F)(F)F)c2=O)n1)C(F)(F)F` [Example 36, N-{2-[3-({3-(4-Chlorophenyl)-5-oxo-4-[(2S)-3,3,3-trifluoro-2-hydroxypropyl]-4,5-dihydro-1H-1,2,4-triazol-1-yl}methyl)-1H-1,2,4-triazol-1-yl]pyridin-3-yl}-2,2,2-trifluoroacetamide], the IC50 came out at 67.5 nM on human V1a receptor and 232 nM at human V2 receptor. For the same molecule, at human V1a receptor, the “ratio IC50 hV2/hV1a” value is 3.4.

With `O=C(CC(F)(F)F)Nc1cccnc1-n1cnc(Cn2nc(-c3ccc(Cl)cc3)n(C[C@H](O)C(F)(F)F)c2=O)n1` [Example 37, N-{2-[3-({3-(4-Chlorophenyl)-5-oxo-4-[(2S)-3,3,3-trifluoro-2-hydroxypropyl]-4,5-dihydro-1H-1,2,4-triazol-1-yl}methyl)-1H-1,2,4-triazol-1-yl]pyridin-3-yl}-3,3,3-trifluoropropanamide], the half-maximal inhibitory concentration (IC50) at human V1a receptor was 7.5 nM; at human V2 receptor, 578 nM. Also, the “ratio IC50 hV2/hV1a” value at human V1a receptor is reported as 77.0.

On to `CC(=O)Nc1cccnc1-n1cnc(Cn2nc(-c3ccc(Cl)cc3)n(C[C@H](O)C(F)(F)F)c2=O)n1` [Example 38, N-{2-[3-({3-(4-Chlorophenyl)-5-oxo-4-[(2S)-3,3,3-trifluoro-2-hydroxypropyl]-4,5-dihydro-1H-1,2,4-triazol-1-yl}methyl)-1H-1,2,4-triazol-1-yl]pyridin-3-yl}acetamide], for which, on human V1a receptor, the IC50 is 4.2 nM and the “ratio IC50 hV2/hV1a” value was found to be 52.4. On human V2 receptor, the 50% inhibitory concentration (IC50) amounted to 220 nM.

Consider `O=C(CF)Nc1cccnc1-n1cnc(Cn2nc(-c3ccc(Cl)cc3)n(C[C@H](O)C(F)(F)F)c2=O)n1` [Example 39, N-{2-[3-({3-(4-Chlorophenyl)-5-oxo-4-[(2S)-3,3,3-trifluoro-2-hydroxypropyl]-4,5-dihydro-1H-1,2,4-triazol-1-yl}methyl)-1H-1,2,4-triazol-1-yl]pyridin-3-yl}-2-fluoroacetamide], for which, at human V1a receptor, the 50% inhibitory concentration (IC50) was found to be 23 nM and the “ratio IC50 hV2/hV1a” value was 15.7. Moreover, the IC50 on human V2 receptor amounted to 360 nM.

Regarding `COCC(=O)Nc1cccnc1-n1cnc(Cn2nc(-c3ccc(Cl)cc3)n(C[C@H](O)C(F)(F)F)c2=O)n1` [Example 40, N-{2-[3-({3-(4-Chlorophenyl)-5-oxo-4-[(2S)-3,3,3-trifluoro-2-hydroxypropyl]-4,5-dihydro-1H-1,2,4-triazol-1-yl}methyl)-1H-1,2,4-triazol-1-yl]pyridin-3-yl}-2-methoxyacetamide], at human V1a receptor, the IC50 was determined as 25.5 nM and the “ratio IC50 hV2/hV1a” value amounted to 13.7. For the same molecule, the IC50 on human V2 receptor is 350 nM.
